Laboratory results taken from patent publication US20090036461A1, “Use of Azabicyclo Hexane Derivatives” (priority 2005, published 2009).

Experiments:
male rats [1] = assay: sexual incentive motivation test in male rats after acute administration; assay type: in vivo, Wistar rats; details: -1 hour; for Time sexual incentive zone (s) / Time social incentive zone / n. of visits social incentive zone / n. of visits to sex. Incentive zone: male rats, n = 9, mean ± s.e.m.
Method: (§1) Background: In order to evaluate the effect on natural rewards and to potentially differentiate this approach compared with clinically active gold standards, the effect of the title compound (0.03, 0.3 and 3 mg/kg i.p.; −1 hour, prepared in an analogous way with Example 40) on sexual desire and consummatory performance was evaluated in the rat after acute administration. The effect of the title compound was assessed according to a Latin squared experimental design in male (about 300 g upon arrival) and female (250 g upon arrival) Wistar rats.
(§2) Method—Male rats, sexually experienced were treated with the title compound and submitted 1-hr later to a sexual incentive motivation test (10 minutes) in which male rats were singly exposed to receptive female and active male incentives (Agmo A., Journal of Comparative Psychology. 117(1), March 2003, 3-14). The following parameters were scored: (1) time spent in the incentive zones (close to the incentive cage); (2) number of visits to the zones, and (3) preference score (time spent in the sexual incentive zone/(time in the sexual incentive zone+time in the social incentive zone)). Immediately after the incentive motivation test each subject was transferred to an observation cage in the presence of a receptive female and its copulatory behaviour was then recorded until the end of the 1st post-ejaculatory interval. In the observation cage, the following behavioural parameters were recorded: (1) mount latency (time from the introduction of the female until the first mount with pelvic thrusting); (2) intromission latency (time from the introduction of the female until the first mount with vaginal penetration); (3) ejaculation latency (time from the 1st intromission until ejaculation); (4) post-ejaculatory interval (time from ejaculation until the following intromission); (5) number of mounts, and (6) number of intromission.
(§3) Results—Data are expressed as mean ±s.e.m.

D3 = D3 (Homo sapiens, UniProt P35462); assay: functional pKi (fpKi) at D3, comparison of separated enantiomers; assay type: biochemical; details: difference in fpKi between the two separated enantiomers of the same example
Sequence of D3 (P35462 whole entry): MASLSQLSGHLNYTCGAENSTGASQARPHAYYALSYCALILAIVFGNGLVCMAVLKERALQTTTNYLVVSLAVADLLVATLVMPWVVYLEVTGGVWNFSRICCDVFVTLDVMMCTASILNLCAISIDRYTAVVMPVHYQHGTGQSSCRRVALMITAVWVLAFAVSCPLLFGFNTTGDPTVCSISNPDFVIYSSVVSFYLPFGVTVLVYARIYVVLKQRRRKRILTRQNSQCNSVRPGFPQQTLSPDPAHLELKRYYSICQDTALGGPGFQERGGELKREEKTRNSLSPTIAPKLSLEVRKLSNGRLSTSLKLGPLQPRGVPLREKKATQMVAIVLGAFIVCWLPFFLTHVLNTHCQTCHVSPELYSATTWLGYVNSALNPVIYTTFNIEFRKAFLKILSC

male rats [2] = assay: copulatory (consummatory) behaviour of male rats with a receptive female; assay type: in vivo, Wistar rats; details: -1 hour; for Ejaculation latency / Intromission latency / Mount latency / Post ejaculatory interval / n. of intromissions / n. of mounts: male rats, n = 9, mean ± s.e.m.
Method: as §1, §2, §3

[3] = 0.03, 0.3 and 3 mg/kg i.p., result in words

Cc1ncoc1-c1nnc(SCCCN2C[C@@H]3C[C@]3(c3ccc(C(F)(F)F)cc3F)C2)n1C.Cl (single isomer, unassigned) [Example 40]
effect on sexual desire of male rats exposed to sexual and social stimuli (male rats [1]; [3]): did not affect sexual desire | Time sexual incentive zone (s) (male rats [1]; 0.03 mg/kg i.p.): 367.57 ± 23.53++ s | Time social incentive zone (male rats [1]; 0.03 mg/kg i.p.): 73.69 ± 12.48 s | n. of visits social incentive zone (male rats [1]; 0.03 mg/kg i.p.): 15.33 ± 1.60 | n. of visits to sex. Incentive zone (male rats [1]; 0.03 mg/kg i.p.): 23.44 ± 1.95++ | Time sexual incentive zone (s) (male rats [1]; 0.3 mg/kg i.p.): 335.12 ± 32.47++ s | Time social incentive zone (male rats [1]; 0.3 mg/kg i.p.): 86.84 ± 13.38 s | n. of visits social incentive zone (male rats [1]; 0.3 mg/kg i.p.): 17.44 ± 2.49 | n. of visits to sex. Incentive zone (male rats [1]; 0.3 mg/kg i.p.): 23.89 ± 2.06++ | Time sexual incentive zone (s) (male rats [1]; 3 mg/kg i.p.): 355.91 ± 13.70++ s | Time social incentive zone (male rats [1]; 3 mg/kg i.p.): 76.83 ± 10.05 s | n. of visits social incentive zone (male rats [1]; 3 mg/kg i.p.): 14.00 ± 1.85 | n. of visits to sex. Incentive zone (male rats [1]; 3 mg/kg i.p.): 21.78 ± 1.72++ | fpKi (D3) higher than the other enantiomer (D3): > 1 log-unit | effect on ejaculation patterns (male rats [2]; [3]): significant increase in the number of mounts, ejaculation latency and post-ejaculatory interval | Ejaculation latency (male rats [2]; 0.03 mg/kg i.p.): 202.2 ± 19.6 s | Intromission latency (male rats [2]; 0.03 mg/kg i.p.): 6.3 ± 0.8 s | Mount latency (male rats [2]; 0.03 mg/kg i.p.): 4.6 ± 0.8 s | Post ejaculatory interval (male rats [2]; 0.03 mg/kg i.p.): 403.0 ± 37.4 s | n. of intromissions (male rats [2]; 0.03 mg/kg i.p.): 15.8 ± 1.3 | n. of mounts (male rats [2]; 0.03 mg/kg i.p.): 3.4 ± 0.7 | Ejaculation latency (male rats [2]; 0.3 mg/kg i.p.): 228.3 ± 53.3 s | Intromission latency (male rats [2]; 0.3 mg/kg i.p.): 7.0 ± 1.1 s | Mount latency (male rats [2]; 0.3 mg/kg i.p.): 5.3 ± 0.8 s | Post ejaculatory interval (male rats [2]; 0.3 mg/kg i.p.): 455.3 ± 73.4 s | n. of intromissions (male rats [2]; 0.3 mg/kg i.p.): 15.6 ± 1.5 | n. of mounts (male rats [2]; 0.3 mg/kg i.p.): 2.3 ± 0.8 | Ejaculation latency (male rats [2]; 3 mg/kg i.p.): 272.8 ± 41.6 s | Intromission latency (male rats [2]; 3 mg/kg i.p.): 8.8 ± 2.0 s | Mount latency (male rats [2]; 3 mg/kg i.p.): 6.4 ± 1.5 s | Post ejaculatory interval (male rats [2]; 3 mg/kg i.p.): 485.1 ± 67.3 s | n. of intromissions (male rats [2]; 3 mg/kg i.p.): 16.8 ± 2.1 | n. of mounts (male rats [2]; 3 mg/kg i.p.): 4.8 ± 1.2
